Results from patent US20240391862A1, “(1,4,5-TRISUBSTITUTED-1H-PYRAZOL-3-YL)OXY-2-ALKOXY ALKYL ACIDS AND THEIR DERIVATIVES, THEIR SALTS AND THEIR USE AS HERBICIDAL AGENTS” (Bayer AKtiengesellschaft, priority 2021, published 2024).

How the values were obtained:
[1] = system: ZEAMX; test: Post-emergence herbicidal effect and crop plant compatibility, greenhouse pot test; assay type: in vivo, Zea mays; conditions: one-leaf stage, rated visually after about 3 weeks vs untreated controls; for plant injury at 20 g/ha / plant injury at 80 g/ha / plant injury at 320 g/ha: Zea mays, 504 h; for plant injury at 20 g/ha: read-out: Post-emergence effect at 20 g/ha against ZEAMX in %; for plant injury at 80 g/ha: read-out: Post-emergence effect at 80 g/ha against ZEAMX in %; for plant injury at 320 g/ha: read-out: Post-emergence effect at 320 g/ha against ZEAMX in %
Procedure, shortened: (§1)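 Visual % activity scored roughly 3 weeks post-spray against untreated plants, where 100% means death and 0% equals control. Plants were treated at the one-leaf stage, 2 to 3 weeks after sowing in sandy loam, at 20 to 320 g/ha.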

[2] = system: TRZAS; test: as above; assay type: in vivo, Triticum aestivum; conditions: for percent crop injury (phytotoxicity) to wheat, post-emergence at 20 g/ha: Triticum aestivum, 504 h, read-out: Post-emergence effect at 20 g/ha against TRZAS in %; for percent crop injury (phytotoxicity) to wheat, post-emergence at 20 g/ha / Post-emergence effect at 20 g/ha against TRZAS in %: one-leaf stage, rated visually after about 3 weeks vs untreated controls; for Post-emergence effect against TRZAS: visual rating about 3 weeks after treatment, crop plant
Description: • ALOMY: Alopecurus myosuroides SETVI: Setaria viridis • AVEFA: Avena fatua POLCO: Fallopia convolvulus • AMARE: Amaranthus retroflexus ECHCG: Echinochloa crus-galli • LOLRJ: Lolium rigidum STEME: Stellaria media • VERPE: Veronica persica MATIN: Tripleurospermum inodorum • DIGSA: Digitaria sanguinalis ABUTH: Abutylon threophrasti • TRZAS: Triticum aestivum VIOTR: Viola tricolor • BRSNW: Brassica napus ZEAMX: Zea mays • PHBPU: Ipomoea purpurea GLXMA: Glycine max • ORYSA: Oryza sativa HORMU: Hordeum murinum
Seeds of monocotyledonous and dicotyledonous weeds and crop plants are placed in sandy loam in plastic or organic planting pots, covered with soil and cultivated in a greenhouse under controlled growth conditions. 2 to 3 weeks after sowing, the trial plants are treated at the one-leaf stage. The compounds of the invention, formulated in the form of wettable powders (WP) or as emulsion concentrates (EC), are then sprayed onto the green parts of the plants as aqueous suspension or emulsion with addition of 0.5% additive at a water application rate of 600 l/ha (converted). After the test plants have been kept in the greenhouse under optimum growth conditions for about 3 weeks, the activity of the preparations is rated visually in comparison to untreated controls. For example, 100% activity=the plants have died, 0% activity=like control plants.
Tables 20a to 38c below show the effects/crop compatibilities of selected compounds of the general formula (I) on various harmful plants at an application rate corresponding to 20 to 320 g/ha, which were obtained by the trial procedure specified above.

[3] = system: ABUTH; test: Post-emergence herbicidal effect, greenhouse pot test; assay type: in vivo, Abutilon theophrasti; conditions: visual rating about 3 weeks after treatment
Procedure, shortened: as §1

[4] = system: ALOMY; test: as above; assay type: in vivo, Alopecurus myosuroides; conditions: visual rating about 3 weeks after treatment
Procedure, shortened: as §1

[5] = system: AMARE; test: as above; assay type: in vivo, Amaranthus retroflexus; conditions: visual rating about 3 weeks after treatment
Procedure, shortened: as §1

[6] = system: AVEFA; test: as above; assay type: in vivo, Avena fatua; conditions: visual rating about 3 weeks after treatment
Procedure, shortened: as §1

[7] = system: DIGSA; test: as above; assay type: in vivo, Digitaria sanguinalis; conditions: visual rating about 3 weeks after treatment
Procedure, shortened: as §1

[8] = system: ECHCG; test: as above; assay type: in vivo, Echinochloa crus-galli; conditions: for Post-emergence effect against ECHCG: 20 g/ha, visual rating about 3 weeks after treatment
Procedure, shortened: as §1

[9] = system: LOLRI; test: as above; assay type: in vivo, Lolium rigidum
Procedure, shortened: as §1

[10] = system: MATIN; test: as above; assay type: in vivo, Tripleurospermum inodorum
Procedure, shortened: as §1

[11] = system: PHBPU; test: as above; assay type: in vivo, Ipomoea purpurea
Procedure, shortened: as §1

[12] = system: POLCO; test: as above; assay type: in vivo, Fallopia convolvulus
Procedure, shortened: as §1

[13] = system: SETVI; test: as above; assay type: in vivo, Setaria viridis
Procedure, shortened: as §1

[14] = system: VERPE; test: as above; assay type: in vivo, Veronica persica
Procedure, shortened: as §1

[15] = system: VIOTR; test: as above; assay type: in vivo, Viola tricolor
Procedure, shortened: as §1

[16] = system: KCHSC; test: as above; assay type: in vivo
Procedure, shortened: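 Visual rating of activity against untreated plants (100% = plants died, 0% = no effect), done about 3 weeks after treatment. Compounds applied at 20–320 g/ha as aqueous spray (600 l/ha, 0.5% additive) from WP or EC formulations onto one-leaf-stage plants grown in sandy loam under greenhouse conditions.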

Structure (SMILES)	plant injury at 20 g/ha ([1]; 20 g/ha) [%]	plant injury at 80 g/ha [1] [%]	percent crop injury (phytotoxicity) to wheat, post-emergence at 20 g/ha [2] [%]	Post-emergence effect against ABUTH ([3]; 80 g/ha) [%]	Post-emergence effect against ABUTH ([3]; 320 g/ha) [%]	Post-emergence effect against AMARE ([5]; 80 g/ha) [%]	Post-emergence effect against AMARE ([5]; 320 g/ha) [%]	Post-emergence effect against AVEFA ([6]; 320 g/ha) [%]	Post-emergence effect against DIGSA ([7]; 320 g/ha) [%]	Post-emergence effect against ECHCG [8] [%]	Post-emergence effect against ECHCG in % ([8]; 80 g/ha) [%]	Post-emergence effect against ECHCG in % ([8]; 320 g/ha) [%]	Post-emergence effect against MATIN in % ([10]; 320 g/ha) [%]	Post-emergence effect against PHBPU in % ([11]; 80 g/ha) [%]	Post-emergence effect against PHBPU in % ([11]; 320 g/ha) [%]	Post-emergence effect against SETVI in % ([13]; 320 g/ha) [%]	Post-emergence effect against VERPE in % ([14]; 80 g/ha) [%]	Post-emergence effect against VERPE in % ([14]; 320 g/ha) [%]	Post-emergence effect against VIOTR in % ([15]; 80 g/ha) [%]	Post-emergence effect against VIOTR in % ([15]; 320 g/ha) [%]	other results
COC(Oc1nn(-c2cnccn2)c(-c2ccc(F)nc2)c1Br)C(=O)O (stereo not shown) [Example I-43]	0	0	0	–	–	–	–	–	–	–	–	–	–	–	–	–	–	–	–	–	–
COC(Oc1nn(-c2ncccc2F)c(-c2ccc(F)nc2)c1Cl)C(=O)O (stereo not shown) [Example I-44]	0	0	0	–	–	–	–	–	–	–	–	–	–	–	–	–	–	–	–	–	plant injury at 320 g/ha [1]: 0%
CCOC(Oc1nn(-c2ccccc2F)c(-c2ccc(F)nc2)c1Cl)C(=O)O (stereo not shown) [Example I-52]	0	0	0	–	–	–	–	–	–	–	–	–	–	–	–	–	–	–	–	–	plant injury at 320 g/ha [1]: 0%
COC(=O)CCOC(=O)C(OC)Oc1nn(-c2ncccc2F)c(-c2cncc(F)c2)c1C1CC1 (stereo not shown) [Example I-82]	–	–	–	90	90	90	90	90	90	80	90	90	90	80	90	90	90	90	90	90	Post-emergence effect at 20 g/ha against ZEAMX in % ([1]; 20 g/ha): 20%; Post-emergence effect against ABUTH ([3]; 20 g/ha): 80%; Post-emergence effect against ALOMY ([4]; 320 g/ha): 90%; Post-emergence effect against AVEFA ([6]; 80 g/ha): 90%; Post-emergence effect against DIGSA ([7]; 80 g/ha): 90%; Post-emergence effect against LOLRI in % ([9]; 320 g/ha): 90%; Post-emergence effect against MATIN in % ([10]; 80 g/ha): 80%; Post-emergence effect against POLCO in % ([12]; 20 g/ha): 80%; Post-emergence effect against POLCO in % ([12]; 80 g/ha): 80%; Post-emergence effect against POLCO in % ([12]; 320 g/ha): 90%; Post-emergence effect against SETVI in % ([13]; 20 g/ha): 90%; Post-emergence effect against SETVI in % ([13]; 80 g/ha): 90%; Post-emergence effect against VIOTR in % ([15]; 20 g/ha): 80%; Post-emergence effect against KCHSC in % ([16]; 20 g/ha): 90%; Post-emergence effect against KCHSC in % ([16]; 80 g/ha): 90%; Post-emergence effect against KCHSC in % ([16]; 320 g/ha): 90%
COC(=O)C(OC)Oc1nn(-c2ncccc2F)c(-c2cncc(F)c2)c1C1CC1 (stereo not shown) [Example I-86]	0	0	–	80	80	80	90	90	80	80	90	90	90	90	90	90	80	90	90	90	Post-emergence effect against ALOMY ([4]; 80 g/ha): 90%; Post-emergence effect against ALOMY ([4]; 320 g/ha): 90%; Post-emergence effect against AVEFA ([6]; 80 g/ha): 90%; pest or weed control at 20 g/ha ([6]; Avena fatua, 504 h, 20 g/ha, read-out: Post-emergence effect against AVEFA): 80%; Post-emergence effect against LOLRI in % ([9]; 80 g/ha): 90%; Post-emergence effect against LOLRI in % ([9]; 320 g/ha): 90%; pest or weed control at 20 g/ha ([9]; Lolium rigidum, 504 h, 20 g/ha, read-out: Post-emergence effect against LOLRI in %): 80%; Post-emergence effect against PHBPU in % ([11]; 20 g/ha): 80%; Post-emergence effect against POLCO in % ([12]; 80 g/ha): 80%; Post-emergence effect against POLCO in % ([12]; 320 g/ha): 90%; pest or weed control at 20 g/ha ([12]; Fallopia convolvulus, 504 h, 20 g/ha, read-out: Post-emergence effect against POLCO in %): 80%; Post-emergence effect against SETVI in % ([13]; 80 g/ha): 90%; Post-emergence effect against KCHSC in % ([16]; 80 g/ha): 90%; Post-emergence effect against KCHSC in % ([16]; 320 g/ha): 90%
CCOC(=O)C(OC)Oc1nn(-c2cccc(C)c2F)c(-c2ccc(F)nc2)c1Br (stereo not shown) [Example I-94]	–	–	–	80	90	80	90	80	80	80	100	100	90	90	90	90	80	90	80	90	Post-emergence effect at 20 g/ha against TRZAS in % [2]: 0%; Post-emergence effect against TRZAS ([2]; 80 g/ha): 10%; Post-emergence effect against TRZAS ([2]; 320 g/ha): 20%; Post-emergence effect against MATIN in % ([10]; 80 g/ha): 80%; Post-emergence effect against PHBPU in % ([11]; 20 g/ha): 80%
COC(=O)CCOC(=O)C(OC)Oc1nn(-c2cccc(C)c2F)c(-c2ccc(F)nc2)c1Br (stereo not shown) [Example I-95]	–	–	–	80	90	80	90	–	–	80	90	100	80	90	90	90	80	90	80	90	Post-emergence effect at 20 g/ha against TRZAS in % [2]: 0%; Post-emergence effect against TRZAS ([2]; 80 g/ha): 0%; Post-emergence effect against TRZAS ([2]; 320 g/ha): 0%; Post-emergence effect against MATIN in % ([10]; 80 g/ha): 80%
COC(=O)C(OC)Oc1nn(-c2cccc(C)c2F)c(-c2ccnc(F)c2)c1Br (stereo not shown) [Example I-115]	–	–	–	–	80	–	–	80	–	–	–	90	–	–	80	90	–	80	–	–	Post-emergence effect at 20 g/ha against TRZAS in % [2]: 0%; Post-emergence effect against TRZAS ([2]; 80 g/ha): 10%; Post-emergence effect against TRZAS ([2]; 320 g/ha): 20%
